Experimental data published in patent US20130172294A1, “Treatment with VB-201” (Vascular Biogenics Ltd., priority 2010, published 2013).

Assay: Effect of food and capsule coating on single-dose pharmacokinetics (Example 3)
Type: in vivo, human
Procedure: Determination of VB-201 concentrations in plasma was performed using an HPLC-MS/MS (high performance liquid chromatography with tandem mass spectrometric detection) assay. Calibration was for a range of from 5 to 500 ng/ml for low doses and from 50 to 5000 ng/ml for high doses. Pharmacokinetic parameters were estimated by using a non-compartmental method, except for the AUC (area under curve), which was determined using a (log-) trapezoidal rule as the area above the previous trough level. All calculations were made using PKWizard (developed by Russell Barbare and Dr. […] was validated against WinNonlin (Pharsight Corp.), which is an FDA-recognized validated program. Pharmacokinetic parameters were calculated by the program according to standard methods used in the art. Calculation of the pharmacokinetic characteristics was based on the actual blood sampling time (in hours), with predose times set to zero. Concentrations below the LLOQ (lower limit of quantification; 4.974 ng/ml) were assumed to be zero. The effects of food on the pharmacokinetics of enteric coated and non-coated VB-201 capsules were investigated in a double-blind, placebo-controlled study in healthy subjects. Cohorts of six subjects each received a single dose of 10 mg, 2×10 mg or 20 mg VB-201 in the morning. […] Subjects were randomly assigned to receive the drug when fed (i.e., following completion of a standardized high fat meal) or when fasting (i.e., fasting for at least 10 hours). […] Subjects then underwent an additional 8 day washout period, after which subjects underwent a second administration. Subjects who received the first administration when fasting, received the second administration when fed, and subjects who received the first administration when fed, received the second administration when fasting. Following the second administration, blood samples were taken at the same times post-dose as previously. Concentration-time curves were constructed for time periods of up to 144 hours. Pharmacokinetic parameters were calculated based on data for the first 24 hours and for the whole 144 hours. […] Nevertheless, parameters were also calculated from data covering the first 24 hours in order to compare parameters with previous studies. Statistical comparisons of doses, coated vs. non-coated capsules, feeding vs. fasting and coating-feeding interactions were performed using a mixed model ANOVA in an SAS 8.02 software package (SAS Institute, Cary, N.C.) using PROC MIXED

Compound: CCCCCCCCCCCCCCCCOCC(COP(=O)([O-])OCC[N+](C)(C)C)OCCCCC(=O)O (stereo not drawn) [VB-201, 1-hexadecyl-2-(4′-carboxybutyl)-glycerol-3-phosphocholine]
- AUC (0-infinity, from 24) (1 × 10 mg coated fasting): 4801 ng·h/mL
- AUC (0-infinity, from 144) (1 × 10 mg coated fasting): 8017 ng·h/mL
- AUC(0-24) (1 × 10 mg coated fasting): 2602 ng·h/mL
- AUC(0-144) (1 × 10 mg coated fasting): 7397 ng·h/mL
- AUMC (0-24) (1 × 10 mg coated fasting): 33556 hours^2*ng/ml
- AUMC (0-infinity) (1 × 10 mg coated fasting): 467760 hours^2*ng/ml
- Cl/F (0-24) (1 × 10 mg coated fasting): 3.293 L/h
- Cl/F (from 144) (1 × 10 mg coated fasting): 1.580 L/h
- Cmax (1 × 10 mg coated fasting): 171.4 ng/mL
- Ke (from 24) (1 × 10 mg coated fasting): 0.0438 h⁻¹
- Ke (from 144) (1 × 10 mg coated fasting): 0.0201 h⁻¹
- MTT (0-24) (1 × 10 mg coated fasting): 12.8 h
- MTT (from 144) (1 × 10 mg coated fasting): 60.7 h
- T1/2 (from 24) (1 × 10 mg coated fasting): 17.8 h
- T1/2 (from 144) (1 × 10 mg coated fasting): 37.6 h
- Tmax (1 × 10 mg coated fasting): 9.33 h
- AUC (0-infinity, from 24) (1 × 10 mg coated fed): 5898 ng·h/mL
- AUC (0-infinity, from 144) (1 × 10 mg coated fed): 9751 ng·h/mL
- AUC(0-24) (1 × 10 mg coated fed): 2202 ng·h/mL
- AUC(0-144) (1 × 10 mg coated fed): 8583 ng·h/mL
- AUMC (0-24) (1 × 10 mg coated fed): 32798 hours^2*ng/ml
- AUMC (0-infinity) (1 × 10 mg coated fed): 699311 hours^2*ng/ml
- Cl/F (0-24) (1 × 10 mg coated fed): 1.883 L/h
- Cl/F (from 144) (1 × 10 mg coated fed): 1.091 L/h
- Cmax (1 × 10 mg coated fed): 186.4 ng/mL
- Ke (from 24) (1 × 10 mg coated fed): 0.0352 h⁻¹
- Ke (from 144) (1 × 10 mg coated fed): 0.0166 h⁻¹
- MTT (0-24) (1 × 10 mg coated fed): 15.1 h
- MTT (from 144) (1 × 10 mg coated fed): 70.7 h
- T1/2 (from 24) (1 × 10 mg coated fed): 23.4 h
- T1/2 (from 144) (1 × 10 mg coated fed): 45.0 h
- Tmax (1 × 10 mg coated fed): 13.67 h
- AUC (0-infinity, from 24) (1 × 10 mg non-coated fasting): 9375 ng·h/mL
- AUC (0-infinity, from 144) (1 × 10 mg non-coated fasting): 15995 ng·h/mL
- AUC(0-24) (1 × 10 mg non-coated fasting): 5759 ng·h/mL
- AUC(0-144) (1 × 10 mg non-coated fasting): 14544 ng·h/mL
- AUMC (0-24) (1 × 10 mg non-coated fasting): 67186 hours^2*ng/ml
- AUMC (0-infinity) (1 × 10 mg non-coated fasting): 924243 hours^2*ng/ml
- Cl/F (0-24) (1 × 10 mg non-coated fasting): 1.184 L/h
- Cl/F (from 144) (1 × 10 mg non-coated fasting): 0.695 L/h
- Cmax (1 × 10 mg non-coated fasting): 364.5 ng/mL
- Ke (from 24) (1 × 10 mg non-coated fasting): 0.0575 h⁻¹
- Ke (from 144) (1 × 10 mg non-coated fasting): 0.0190 h⁻¹
- MTT (0-24) (1 × 10 mg non-coated fasting): 11.7 h
- MTT (from 144) (1 × 10 mg non-coated fasting): 54.2 h
- T1/2 (from 24) (1 × 10 mg non-coated fasting): 13.6 h
- T1/2 (from 144) (1 × 10 mg non-coated fasting): 39.7 h
- Tmax (1 × 10 mg non-coated fasting): 7.67 h
- AUC (0-infinity, from 24) (1 × 10 mg non-coated fed): 7019 ng·h/mL
- AUC (0-infinity, from 144) (1 × 10 mg non-coated fed): 16062 ng·h/mL
- AUC(0-24) (1 × 10 mg non-coated fed): 4855 ng·h/mL
- AUC(0-144) (1 × 10 mg non-coated fed): 13717 ng·h/mL
- AUMC (0-24) (1 × 10 mg non-coated fed): 60611 hours^2*ng/ml
- AUMC (0-infinity) (1 × 10 mg non-coated fed): 1254665 hours^2*ng/ml
- Cl/F (0-24) (1 × 10 mg non-coated fed): 1.552 L/h
- Cl/F (from 144) (1 × 10 mg non-coated fed): 0.702 L/h
- Cmax (1 × 10 mg non-coated fed): 343.3 ng/mL
- Ke (from 24) (1 × 10 mg non-coated fed): 0.0670 h⁻¹
- Ke (from 144) (1 × 10 mg non-coated fed): 0.0180 h⁻¹
- MTT (0-24) (1 × 10 mg non-coated fed): 12.5 h
- MTT (from 144) (1 × 10 mg non-coated fed): 70.3 h
- T1/2 (from 24) (1 × 10 mg non-coated fed): 11.2 h
- T1/2 (from 144) (1 × 10 mg non-coated fed): 47.7 h
- Tmax (1 × 10 mg non-coated fed): 10.17 h
- AUC (0-infinity, from 24) (1 × 20 mg coated fasting): 9794 ng·h/mL
- AUC (0-infinity, from 144) (1 × 20 mg coated fasting): 15637 ng·h/mL
- AUC(0-24) (1 × 20 mg coated fasting): 5362 ng·h/mL
- AUC(0-144) (1 × 20 mg coated fasting): 14579 ng·h/mL
- AUMC (0-24) (1 × 20 mg coated fasting): 68472 hours^2*ng/ml
- AUMC (0-infinity) (1 × 20 mg coated fasting): 849853 hours^2*ng/ml
- Cl/F (0-24) (1 × 20 mg coated fasting): 3.188 L/h
- Cl/F (from 144) (1 × 20 mg coated fasting): 2.387 L/h
- Cmax (1 × 20 mg coated fasting): 366.3 ng/mL
- Ke (from 24) (1 × 20 mg coated fasting): 0.0385 h⁻¹
- Ke (from 144) (1 × 20 mg coated fasting): 0.0203 h⁻¹
- MTT (0-24) (1 × 20 mg coated fasting): 12.8 h
- MTT (from 144) (1 × 20 mg coated fasting): 53.8 h
- T1/2 (from 24) (1 × 20 mg coated fasting): 19.9 h
- T1/2 (from 144) (1 × 20 mg coated fasting): 35.6 h
- Tmax (1 × 20 mg coated fasting): 8.17 h
- AUC (0-infinity, from 24) (1 × 20 mg coated fed): 20054 ng·h/mL
- AUC (0-infinity, from 144) (1 × 20 mg coated fed): 16687 ng·h/mL
- AUC(0-24) (1 × 20 mg coated fed): 4655 ng·h/mL
- AUC(0-144) (1 × 20 mg coated fed): 14968 ng·h/mL
- AUMC (0-24) (1 × 20 mg coated fed): 66330 hours^2*ng/ml
- AUMC (0-infinity) (1 × 20 mg coated fed): 1070977 hours^2*ng/ml
- Cl/F (0-24) (1 × 20 mg coated fed): 1.400 L/h
- Cl/F (from 144) (1 × 20 mg coated fed): 1.583 L/h
- Cmax (1 × 20 mg coated fed): 306.6 ng/mL
- Ke (from 24) (1 × 20 mg coated fed): 0.0230 h⁻¹
- Ke (from 144) (1 × 20 mg coated fed): 0.0179 h⁻¹
- MTT (0-24) (1 × 20 mg coated fed): 14.9 h
- MTT (from 144) (1 × 20 mg coated fed): 62.9 h
- T1/2 (from 24) (1 × 20 mg coated fed): 53.2 h
- T1/2 (from 144) (1 × 20 mg coated fed): 39.6 h
- Tmax (1 × 20 mg coated fed): 11.67 h
